The values below come from patent US12195506B2, “Immunotherapy with A*01 restricted peptides and combination of peptides against cancers and related methods” (Immatics Biotechnologies GmbH, priority 2018, dated 2025).

One assay addresses HLA-A*01:01 (Homo sapiens, UniProt P04439, A114D/A174V/A182V/D101N/D185E/E176A/E190D/L180R/Q94H/R68K/S129P/T187R/V100A/V91M/W191G). The assay can be described thus: MHC binding assay: UV-ligand exchange, ELISA of stabilized MHC complexes (peptide exchange yield). The following applies: binding to HLA-A*01:01, UV-ligand exchange. The method in brief: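 Peptide–MHC complexes were formed by UV-induced exchange of a photocleavable ligand for the test peptide. Exchange yield was measured by streptavidin-capture ELISA of 100-fold diluted complexes, detected with HRP anti-β2m at A450. Refolded HLA-A*02:01/MLA-001 monomers at 15-500 ng/ml served as standards.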
A general note: An ELISA detects its analyte on a solid surface through an enzyme-linked reagent.

A further assay concerns CD8+ T cells. Description: In vitro T-cell priming assay with artificial antigen presenting cells loaded with peptide/MHC complexes and anti-CD28 antibody, pMHC multimer readout. The class given is cell-based, human. The following applies: in vitro immunogenicity, peptide-specific multimer+ CD8+ T cells. From the text:
In order to obtain information regarding the immunogenicity of the TUMAPs of the present invention, the inventors performed investigations using an in vitro T-cell priming assay based on repeated stimulations of CD8+ T cells with artificial antigen presenting cells (aAPCs) loaded with peptide/MHC complexes and anti-CD28 antibody.
In order to perform in vitro stimulations by artificial antigen presenting cells loaded with peptide-MHC complex (pMHC) and anti-CD28 antibody, the inventors first isolated CD8+ T cells from fresh HLA-A*02 leukapheresis products via positive selection using CD8 microbeads (Miltenyi Biotec, Bergisch-Gladbach, Germany) of healthy donors obtained from the University clinics Mannheim, Germany, after informed consent.
PBMCs and isolated CD8+ lymphocytes were incubated in T-cell medium (TCM) until use consisting of RPMI-Glutamax (Invitrogen, Karlsruhe, Germany) supplemented with 10% heat inactivated human AB serum (PAN-Biotech, Aidenbach, Germany), 100 U/ml Penicillin/100 μg/ml Streptomycin (Cambrex, Cologne, Germany), 1 mM sodium pyruvate (CC Pro, Oberdorla, Germany), 20 μg/ml Gentamycin (Cambrex). 2.5 ng/ml IL-7 (PromoCell, Heidelberg, Germany) and 10 U/ml IL-2 (Novartis Pharma, Nurnberg, Germany) were also added to the TCM at this step.
Generation of pMHC/anti-CD28 coated beads, T-cell stimulations and readout was performed in a highly defined in vitro system using four different pMHC molecules per stimulation condition and 8 different pMHC molecules per readout condition.
The purified co-stimulatory mouse IgG2a anti human CD28 Ab 9.3 (Jung et al., 1987) was chemically biotinylated using Sulfo-N-hydroxysuccinimidobiotin as recommended by the manufacturer (Perbio, Bonn, Germany). Beads used were 5.6 μm diameter streptavidin coated polystyrene particles (Bangs Laboratories, Illinois, USA).
pMHC used for positive and negative control stimulations were A*0201/MLA-001 (peptide […] (SEQ ID NO. 433) from modified Melan-A/MART-1) and A*0201/DDX5-001 ([…] from DDX5, SEQ ID NO. 434), respectively.
800.000 beads/200 μI were coated in 96-well plates in the presence of 4×12.5 ng different biotin-pMHC, washed and 600 ng biotin anti-CD28 were added subsequently in a volume of 200 μI. Stimulations were initiated in 96-well plates by co-incubating 1×10^6 CD8+ T cells with 2×10^5 washed coated beads in 200 μI TCM supplemented with 5 ng/ml IL-12 (PromoCell) for 3 days at 37° C. Half of the medium was then exchanged by fresh TCM supplemented with 80 U/ml IL-2 and incubating was continued for 4 days at 37° C. This stimulation cycle was performed for a total of three times. For the pMHC multimer readout using 8 different pMHC molecules per condition, a two-dimensional combinatorial coding approach was used as previously described (Andersen et al., 2012) with minor modifications encompassing coupling to 5 different fluorochromes. Finally, multimeric analyses were performed by staining the cells with Live/dead near IR dye (Invitrogen, Karlsruhe, Germany), CD8-FITC antibody clone SK1 (BD, Heidelberg, Germany) and fluorescent pMHC multimers. For analysis, a BD LSRII SORP cytometer equipped with appropriate lasers and filters was used. Peptide specific cells were calculated as percentage of total CD8+ cells. Evaluation of multimeric analysis was done using the FlowJo software (Tree Star, Oregon, USA). In vitro priming of specific multimer+CD8+ lymphocytes was detected by comparing to negative control stimulations.

Regarding “10 (VSERTGISY; listed as Homo sapiens) [compound 10]”, the Peptide exchange result with HLA-A*01:01 is given as “+++ (>50 = +++)”. Also, the “Wells positive [%]” value with CD8+ T cells (Table 10b) is “+ (<20% = +)”. In the case of “11 (ASDHWRGRY; listed as Homo sapiens) [compound 11]”, the Peptide exchange entry in the assay with HLA-A*01:01 was “+++ (>50 = +++)”. The “Wells positive [%]” value in the assay with CD8+ T cells (Table 10b) was “+++ (50%-69% = +++)”. Consider “12 (YTDFVGEGLY; listed as Homo sapiens) [compound 12]”, for which, in the assay with HLA-A*01:01, the Peptide exchange entry is reported as “+++ (>50 = +++)”. Further, the “Wells positive [%]” value in the assay on CD8+ T cells (Table 10b) is given as “+ (<20% = +)”. The matching figures for “18 (RSDPVSLRY; listed as Homo sapiens) [compound 18]”: “++++ (>75% = ++++)” and “++ (20%-49% = ++)”.

In the case of “19 (LTEGHSGNY; listed as Homo sapiens) [compound 19]”, the Peptide exchange entry in the assay with HLA-A*01:01 is “++++ (>75% = ++++)”. Moreover, the “Wells positive [%]” value in the assay on CD8+ T cells (Table 10b) was “+ (<20% = +)”. In the same order, the values of “24 (NLDHYTNAY; listed as Homo sapiens) [compound 24]” are “+++ (>50 = +++)” and “+ (<20% = +)”.

With “26 (ASDDFRSKY; listed as Homo sapiens) [compound 26]”, in the assay with HLA-A*01:01, the Peptide exchange entry is “+++ (>50 = +++)”. Also, the “Wells positive [%]” value in the assay on CD8+ T cells (Table 10b) is “++ (20%-49% = ++)”. In the same order, the values of “27 (PSEVPVDSHY; listed as Homo sapiens) [compound 27]” are “++++ (>75% = ++++)” and “+ (<20% = +)”. With “33 (SMDPVTGYQY; listed as Homo sapiens) [compound 33]”, in the assay with HLA-A*01:01, the Peptide exchange entry is reported as “+++ (>50 = +++)”. The “Wells positive [%]” value in the assay with CD8+ T cells (Table 10b) was “+ (<20% = +)”. The matching figures for “37 (MTSTEQSLYY; listed as Homo sapiens) [compound 37]”: “+++ (>50 = +++)” and “+ (<20% = +)”. As to “42 (ASDVDTLLK; listed as Homo sapiens) [compound 42]”, the Peptide exchange result with HLA-A*01:01 is on record as “+++ (>50 = +++)”. Also, in the assay on CD8+ T cells (Table 10b), the “Wells positive [%]” value is on record as “+ (<20% = +)”. The matching figures for “53 (YLEDRPLSQLY; listed as Homo sapiens) [compound 53]”: “++++ (>75% = ++++)” and “+ (<20% = +)”. The matching figures for “54 (EVDIHTIHY; listed as Homo sapiens) [compound 54]”: “+++ (>50 = +++)” and “+ (<20% = +)”. In the same order, the values of “60 (MTEKFLFLY; listed as Homo sapiens) [compound 60]” are “++++ (>75% = ++++)” and “+ (<20% = +)”.

In the case of “61 (SSDIVALGGFLY; listed as Homo sapiens) [compound 61]”, the Peptide exchange entry with HLA-A*01:01 is recorded as “+++ (>50 = +++)”. For the same substance, the “Wells positive [%]” value with CD8+ T cells (Table 10b) is “++ (20%-49% = ++)”.

For the substance “64 (TSEISQNALMYY; listed as Homo sapiens) [compound 64]”, the Peptide exchange entry with HLA-A*01:01 is reported as “+++ (>50 = +++)”. The “Wells positive [%]” value in the assay with CD8+ T cells (Table 10b) is on record as “+ (<20% = +)”. For the substance “70 (YTELVEEKY; listed as Homo sapiens) [compound 70]”, the Peptide exchange result with HLA-A*01:01 is given as “+++ (>50 = +++)”. In the assay with CD8+ T cells (Table 10b), the “Wells positive [%]” value is reported as “+ (<20% = +)”. Turning to “71 (LTDSTTRTTY; listed as Homo sapiens) [compound 71]”, the Peptide exchange entry with HLA-A*01:01 is “+++ (>50 = +++)”. Moreover, the “Wells positive [%]” value in the assay with CD8+ T cells (Table 10b) is listed as “+ (<20% = +)”. The matching figures for “73 (STDSASYY; listed as Homo sapiens) [compound 73]”: “++++ (>75% = ++++)” and “+ (<20% = +)”. As for “75 (FTDYELKAY; listed as Homo sapiens) [compound 75]”, the Peptide exchange entry in the assay with HLA-A*01:01 is reported as “++++ (>75% = ++++)”. Further, the “Wells positive [%]” value in the assay with CD8+ T cells (Table 10b) was “+ (<20% = +)”.

As for “77 (FTSDTGLEY; listed as Homo sapiens) [compound 77]”, the Peptide exchange result with HLA-A*01:01 is “++++ (>75% = ++++)”. Moreover, the “Wells positive [%]” value in the assay with CD8+ T cells (Table 10b) is recorded as “+++ (50%-69% = +++)”. For “79 (ASDLEPRELLSY; listed as Homo sapiens) [compound 79]”, in the assay with HLA-A*01:01, the Peptide exchange result is “+++ (>50 = +++)”. Moreover, the “Wells positive [%]” value in the assay on CD8+ T cells (Table 10b) is given as “+ (<20% = +)”. For the substance “81 (YSDLHTPGRY; listed as Homo sapiens) [compound 81]”, the Peptide exchange result in the assay with HLA-A*01:01 was “+++ (>50 = +++)”. Besides, in the assay on CD8+ T cells (Table 10b), the “Wells positive [%]” value is “+ (<20% = +)”. In the same order, the values of “82 (LTEKSHIRY; listed as Homo sapiens) [compound 82]” are “+++ (>50 = +++)” and “+ (<20% = +)”. In the same order, the values of “83 (DTEFHGGLHY; listed as Homo sapiens) [compound 83]” are “+++ (>50 = +++)” and “+ (<20% = +)”. The matching figures for “84 (ESEMIKFASYY; listed as Homo sapiens) [compound 84]”: “++++ (>75% = ++++)” and “+ (<20% = +)”. Turning to “386 (NSALNPLLY; listed as Homo sapiens) [compound 386]”, the Peptide exchange entry in the assay with HLA-A*01:01 was “++++ (>75% = ++++)”. Also, the “Wells positive [%]” value in the assay on CD8+ T cells (Table 10b) was “+ (<20% = +)”. For the substance “396 (LPDPNVQKY; listed as Homo sapiens) [compound 396]”, the Peptide exchange result in the assay with HLA-A*01:01 is “++ (>20% = ++)”. For “397 (NSAINPLIY; listed as Homo sapiens) [compound 397]”, the Peptide exchange entry with HLA-A*01:01 is “++++ (>75% = ++++)”.

Consider “398 (YYYDTHTNTY; listed as Homo sapiens) [compound 398]”, for which the Peptide exchange entry with HLA-A*01:01 was “+ (>10% =+)”.

With “399 (YVGKEHMFY; listed as Homo sapiens) [compound 399]”, in the assay on CD8+ T cells (Table 10a), the “Wells positive [%]” value is listed as “+ (<20% = +)”. Still for that read-out and setting: the value for “400 (NTDNNLAVY; listed as Homo sapiens) [compound 400]” was “+ (<20% = +)”; that for “401 (VWSNVTPLKF; listed as Homo sapiens) [compound 401]” was “+ (<20% = +)”. On the same count and under the same terms, the value for “403 (SADDIRGIQSLY; listed as Homo sapiens) [compound 403]” was “+ (<20% = +)”; that for “404 (FVDNQYWRY; listed as Homo sapiens) [compound 404]” was “+ (<20% = +)”. Regarding “408 (VWSDVTPLTF; listed as Homo sapiens) [compound 408]”, in the assay with CD8+ T cells (Table 10a), the “Wells positive [%]” value is listed as “+ (<20% = +)”.

As for “414 (LTEGHSGNYY; listed as Homo sapiens) [compound 414]”, in the assay with CD8+ T cells (Table 10a), the “Wells positive [%]” value is “+ (<20% = +)”. With “415 (VWSDVTPLNF; listed as Homo sapiens) [compound 415]”, in the assay with CD8+ T cells (Table 10a), the “Wells positive [%]” value was “+ (<20% = +)”. Still for that read-out and setting: under “417 (KLDRSVFTAY; listed as Homo sapiens) [compound 417]” stands “++++ (>= 70% = ++++)”.

For the substance “420 (VTDLEMPHY; listed as Homo sapiens) [compound 420]”, the “Wells positive [%]” value in the assay on CD8+ T cells (Table 10a) was “+ (<20% = +)”. “421 (RSDPGGGGLAY; listed as Homo sapiens) [compound 421]”: the “Wells positive [%]” value in the assay on CD8+ T cells (Table 10a) was “+ (<20% = +)”.

Turning to “427 (LTDYINANY; listed as Homo sapiens) [compound 427]”, the “Wells positive [%]” value in the assay on CD8+ T cells (Table 10a) is on record as “+ (<20% = +)”.

In the case of “429 (VSDSECLSRY; listed as Homo sapiens) [compound 429]”, in the assay on CD8+ T cells (Table 10a), the “Wells positive [%]” value is listed as “++ (20%-49% = ++)”.
